Experimental data as given in ChEMBL document CHEMBL1781973, “Novel and Potent 5-Piperazinyl Methyl-N 1-aryl Sulfonyl Indole Derivatives as 5-HT6 Receptor Ligands” (ACS Med Chem Lett, 2010).
Active and inactive are the calls of the source. The rule behind the calls is not given here.

What was measured:
[1] = biological target: T1, CYP3A4 (Homo sapiens, UniProt P08684); assay: Inhibition of human CYP3A4 at 3 uM; type: ADME
[2] = biological target: T2, CYP1A2 (Homo sapiens, UniProt P05177); assay: Inhibition of human CYP1A2 at 3 uM; type: ADME
T2 sequence (P05177 whole entry): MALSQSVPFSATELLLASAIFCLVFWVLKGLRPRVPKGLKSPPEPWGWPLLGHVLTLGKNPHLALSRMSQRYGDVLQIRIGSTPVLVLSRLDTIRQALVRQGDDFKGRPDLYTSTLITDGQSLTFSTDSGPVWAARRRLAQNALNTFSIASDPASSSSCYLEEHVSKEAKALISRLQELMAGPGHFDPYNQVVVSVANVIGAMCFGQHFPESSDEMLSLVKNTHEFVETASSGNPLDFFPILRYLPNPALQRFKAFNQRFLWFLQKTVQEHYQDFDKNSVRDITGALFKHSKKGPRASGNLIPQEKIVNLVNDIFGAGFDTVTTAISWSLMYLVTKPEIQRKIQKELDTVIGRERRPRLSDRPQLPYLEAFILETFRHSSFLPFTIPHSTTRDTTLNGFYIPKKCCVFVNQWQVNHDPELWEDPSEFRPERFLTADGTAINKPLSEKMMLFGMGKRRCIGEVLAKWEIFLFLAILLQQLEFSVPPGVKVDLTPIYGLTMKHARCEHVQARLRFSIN

[3] = biological target: T3, CYP2C19 (Homo sapiens, UniProt P33261); assay: Inhibition of human CYP2C19 at 3 uM; type: ADME
T3 sequence (P33261 whole entry): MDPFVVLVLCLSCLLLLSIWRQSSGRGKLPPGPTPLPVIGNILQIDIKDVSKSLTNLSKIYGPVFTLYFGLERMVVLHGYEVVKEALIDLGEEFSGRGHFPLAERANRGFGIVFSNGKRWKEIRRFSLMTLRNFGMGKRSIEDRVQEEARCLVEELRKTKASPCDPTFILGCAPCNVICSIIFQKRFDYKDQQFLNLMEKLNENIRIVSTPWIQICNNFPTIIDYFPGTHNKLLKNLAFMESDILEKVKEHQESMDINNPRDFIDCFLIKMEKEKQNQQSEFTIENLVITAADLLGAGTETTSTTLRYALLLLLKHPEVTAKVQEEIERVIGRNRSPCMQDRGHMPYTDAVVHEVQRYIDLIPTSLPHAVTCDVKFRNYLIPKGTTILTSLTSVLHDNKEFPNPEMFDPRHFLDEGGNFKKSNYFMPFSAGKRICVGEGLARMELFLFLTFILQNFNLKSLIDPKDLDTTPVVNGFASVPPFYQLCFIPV

[4] = biological target: T4, CYP2D6 (Homo sapiens, UniProt P10635); assay: Inhibition of human CYP2D6 at 3 uM; type: ADME
T4 sequence (P10635 whole entry): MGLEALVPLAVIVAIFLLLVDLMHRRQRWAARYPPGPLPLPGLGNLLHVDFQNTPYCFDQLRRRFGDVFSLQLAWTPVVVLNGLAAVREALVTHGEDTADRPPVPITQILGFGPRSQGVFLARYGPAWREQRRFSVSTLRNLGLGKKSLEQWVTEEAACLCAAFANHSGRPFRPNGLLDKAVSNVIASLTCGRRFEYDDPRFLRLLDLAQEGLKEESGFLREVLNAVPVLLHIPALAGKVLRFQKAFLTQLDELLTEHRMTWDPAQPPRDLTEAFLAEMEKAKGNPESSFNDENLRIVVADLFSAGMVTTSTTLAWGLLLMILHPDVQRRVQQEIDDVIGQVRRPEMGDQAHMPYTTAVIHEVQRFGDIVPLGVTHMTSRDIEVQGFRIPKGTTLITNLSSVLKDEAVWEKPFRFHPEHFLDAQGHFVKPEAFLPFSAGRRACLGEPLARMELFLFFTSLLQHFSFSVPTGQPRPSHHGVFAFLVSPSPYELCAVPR

[5] = biological target: T1, CYP3A4; assay: Inhibition of human CYP3A4 at 10 uM; type: ADME
[6] = system: CYP2C9*1; assay: Inhibition of human CYP2C9*1 at 10 uM; type: ADME
[7] = biological target: T3, CYP2C19; assay: Inhibition of human CYP2C19 at 10 uM; type: ADME
[8] = system: CYP2C9*1; assay: Inhibition of human CYP2C9*1 at 3 uM; type: ADME
[9] = biological target: T4, CYP2D6; assay: Inhibition of human CYP2D6 at 10 uM; type: ADME
[10] = biological target: T5, CYP2A6 (Homo sapiens, UniProt P11509); assay: Inhibition of human CYP2A6 at 3 uM; type: ADME
T5 sequence (P11509 whole entry): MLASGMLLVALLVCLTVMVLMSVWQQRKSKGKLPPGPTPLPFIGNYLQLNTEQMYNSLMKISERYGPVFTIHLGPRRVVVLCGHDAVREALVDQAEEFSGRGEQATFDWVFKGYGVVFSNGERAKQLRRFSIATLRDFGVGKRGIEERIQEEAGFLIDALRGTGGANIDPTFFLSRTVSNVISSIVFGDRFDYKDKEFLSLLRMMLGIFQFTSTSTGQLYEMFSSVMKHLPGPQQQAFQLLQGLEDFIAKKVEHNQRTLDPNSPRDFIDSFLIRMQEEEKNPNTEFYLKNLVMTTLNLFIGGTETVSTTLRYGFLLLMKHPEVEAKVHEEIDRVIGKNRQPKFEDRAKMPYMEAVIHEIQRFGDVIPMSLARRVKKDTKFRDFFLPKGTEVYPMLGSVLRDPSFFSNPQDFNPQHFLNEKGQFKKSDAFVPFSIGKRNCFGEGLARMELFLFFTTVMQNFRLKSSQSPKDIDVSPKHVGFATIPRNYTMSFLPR

[11] = biological target: T2, CYP1A2; assay: Inhibition of human CYP1A2 at 10 uM; type: ADME
[12] = biological target: T5, CYP2A6; assay: Inhibition of human CYP2A6 at 10 uM; type: ADME
[13] = biological target: 5-hydroxytryptamine receptor 6 (Homo sapiens, UniProt P50406); assay: biochemical
Chain of 5-hydroxytryptamine receptor 6 (P50406 whole entry): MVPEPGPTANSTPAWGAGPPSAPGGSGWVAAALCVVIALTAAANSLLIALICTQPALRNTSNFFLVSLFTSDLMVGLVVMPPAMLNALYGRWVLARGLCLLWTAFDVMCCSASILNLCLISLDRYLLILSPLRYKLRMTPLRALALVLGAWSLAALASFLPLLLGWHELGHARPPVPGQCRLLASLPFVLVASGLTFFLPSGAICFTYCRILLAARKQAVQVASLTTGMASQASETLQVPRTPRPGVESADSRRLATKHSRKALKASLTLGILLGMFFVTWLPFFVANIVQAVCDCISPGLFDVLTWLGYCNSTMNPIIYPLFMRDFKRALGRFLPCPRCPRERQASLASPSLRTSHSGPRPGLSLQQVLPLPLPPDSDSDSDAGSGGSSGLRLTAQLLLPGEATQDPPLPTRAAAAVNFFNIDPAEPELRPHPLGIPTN
Description: Displacement of [3H]LSD from human 5HT6 receptor expressed in HEK293 cells

[14] = biological target: 5-hydroxytryptamine receptor 4 (Homo sapiens, UniProt Q13639); assay: Inhibition of human 5HT4 receptor expressed in CHO cells after 5 hrs by luciferase reporter assay; type: cell-based
Chain of 5-hydroxytryptamine receptor 4 (Q13639 whole entry): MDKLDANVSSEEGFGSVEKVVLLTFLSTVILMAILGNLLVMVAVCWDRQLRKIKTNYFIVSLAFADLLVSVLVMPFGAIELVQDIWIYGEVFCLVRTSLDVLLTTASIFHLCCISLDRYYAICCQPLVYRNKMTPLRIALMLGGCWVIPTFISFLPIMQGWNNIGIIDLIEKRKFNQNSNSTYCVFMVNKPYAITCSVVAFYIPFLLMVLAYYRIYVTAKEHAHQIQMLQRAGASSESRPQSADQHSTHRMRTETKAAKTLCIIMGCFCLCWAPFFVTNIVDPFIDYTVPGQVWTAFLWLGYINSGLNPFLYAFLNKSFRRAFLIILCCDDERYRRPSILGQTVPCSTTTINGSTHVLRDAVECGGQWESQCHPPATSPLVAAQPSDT

[15] = biological target: 5-hydroxytryptamine receptor 7 (Homo sapiens, UniProt P34969); assay: Inhibition of human 5HT7 receptor expressed in CHO cells after 5 hrs by luciferase reporter assay; type: cell-based
Chain of 5-hydroxytryptamine receptor 7 (P34969 whole entry): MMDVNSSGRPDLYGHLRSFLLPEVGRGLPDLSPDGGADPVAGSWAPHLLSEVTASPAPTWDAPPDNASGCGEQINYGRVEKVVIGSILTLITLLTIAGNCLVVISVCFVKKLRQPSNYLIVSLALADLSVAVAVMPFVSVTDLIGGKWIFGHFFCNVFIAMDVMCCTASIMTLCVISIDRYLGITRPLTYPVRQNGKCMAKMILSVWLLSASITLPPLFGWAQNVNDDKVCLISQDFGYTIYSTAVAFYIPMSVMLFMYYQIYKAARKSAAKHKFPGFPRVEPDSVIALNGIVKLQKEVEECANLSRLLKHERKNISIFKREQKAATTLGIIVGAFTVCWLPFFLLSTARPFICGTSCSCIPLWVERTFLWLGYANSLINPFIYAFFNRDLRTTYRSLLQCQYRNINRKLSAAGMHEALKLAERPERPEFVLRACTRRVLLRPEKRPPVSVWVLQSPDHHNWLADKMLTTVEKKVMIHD

[16] = biological target: T6, Muscarinic acetylcholine receptor M1 (Homo sapiens, UniProt P11229); assay: Inhibition of human muscarinic M1 receptor expressed in CHO cells after 5 hrs by luciferase reporter assay; type: cell-based
T6 sequence (P11229 whole entry): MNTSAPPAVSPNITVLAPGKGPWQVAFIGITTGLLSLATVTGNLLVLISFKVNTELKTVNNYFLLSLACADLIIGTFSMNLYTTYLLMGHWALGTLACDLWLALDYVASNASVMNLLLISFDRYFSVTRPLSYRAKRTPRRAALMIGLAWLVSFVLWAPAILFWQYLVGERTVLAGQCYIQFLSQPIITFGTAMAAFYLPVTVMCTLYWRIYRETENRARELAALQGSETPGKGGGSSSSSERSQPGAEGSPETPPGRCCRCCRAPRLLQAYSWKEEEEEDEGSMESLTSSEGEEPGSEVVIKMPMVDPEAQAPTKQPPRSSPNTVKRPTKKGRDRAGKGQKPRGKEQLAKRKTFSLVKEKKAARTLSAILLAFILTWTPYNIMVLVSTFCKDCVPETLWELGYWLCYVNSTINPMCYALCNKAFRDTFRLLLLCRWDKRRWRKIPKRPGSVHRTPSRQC

[17] = Ratio of drug level at steady state in brain to plasma in fasted Wistar rat; type: ADME; details: read-out: BPR
[18] = AUCt in fasted Wistar rat at 10 mg/kg, po; type: ADME, organism-based; design: dose 10 mg/kg, route oral; details: plasma
[19] = system: Rattus norvegicus; assay: Apparent volume of distribution in fasted Wistar rat at 10 mg/kg, po; type: ADME, organism-based; design: dose 10 mg/kg, route oral; details: in vivo
[20] = Half life in fasted Wistar rat at 10 mg/kg, iv; type: ADME, organism-based; design: dose 10 mg/kg, route intravenous; details: in vivo
[21] = Clearance in fasted Wistar rat at 10 mg/kg, iv; type: ADME, organism-based; design: dose 10 mg/kg, route intravenous; details: in vivo
[22] = Cmax in fasted Wistar rat at 10 mg/kg, po; type: ADME, organism-based; design: dose 10 mg/kg, route oral; details: in vivo
[23] = Oral bioavailability in fasted Wistar rat; type: ADME, organism-based; details: in vivo
[24] = Apparent volume of distribution in fasted Wistar rat at 10 mg/kg, iv; type: ADME, organism-based; design: dose 10 mg/kg, route intravenous; details: in vivo, read-out: Vz
[25] = system: Rattus norvegicus; assay: Cognitive enhancing effect against scopolamine-induced memory deficit in Wistar rat at 10 mg/kg, po by novel object recognition test; type: functional, organism-based; design: dose 10 mg/kg
[26] = Clearance in fasted Wistar rat at 10 mg/kg, po; type: ADME, organism-based; design: dose 10 mg/kg, route oral; details: in vivo
[27] = Cmax in fasted Wistar rat at 10 mg/kg, iv; type: ADME, organism-based; design: dose 10 mg/kg, route intravenous; details: in vivo
[28] = AUCt in fasted Wistar rat at 10 mg/kg, iv; type: ADME, organism-based; design: dose 10 mg/kg, route intravenous; details: plasma
[29] = system: Rattus norvegicus; assay: Cognitive enhancing effect against scopolamine-induced memory deficit in Wistar rat at 30 mg/kg, po administered 60 mins before acquisition training measured after 5 days by Morris water maze test; type: functional, organism-based; design: dose 30 mg/kg
[30] = Half life in fasted Wistar rat at 10 mg/kg, po; type: ADME, organism-based; design: dose 10 mg/kg, route oral; details: in vivo

T1 sequence (P08684 whole entry): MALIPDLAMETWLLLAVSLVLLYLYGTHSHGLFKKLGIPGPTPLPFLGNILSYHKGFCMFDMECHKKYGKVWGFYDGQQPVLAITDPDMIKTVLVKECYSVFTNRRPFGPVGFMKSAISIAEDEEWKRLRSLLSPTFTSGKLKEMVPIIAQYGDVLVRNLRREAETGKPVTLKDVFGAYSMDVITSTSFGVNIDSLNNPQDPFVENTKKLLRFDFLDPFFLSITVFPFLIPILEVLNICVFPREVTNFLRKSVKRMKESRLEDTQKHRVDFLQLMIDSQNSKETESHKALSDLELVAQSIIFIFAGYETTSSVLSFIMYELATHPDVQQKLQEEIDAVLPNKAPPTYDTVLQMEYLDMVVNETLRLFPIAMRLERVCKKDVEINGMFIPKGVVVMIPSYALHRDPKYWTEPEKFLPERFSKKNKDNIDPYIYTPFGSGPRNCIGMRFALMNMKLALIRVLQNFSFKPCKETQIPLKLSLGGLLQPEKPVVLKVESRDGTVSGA

Row | inhibition at 3 µM [1] [%] | inhibition at 3 µM [2] [%] | inhibition at 3 µM [3] [%] | inhibition at 3 µM [4] [%] | inhibition at 10 µM [5] [%] | inhibition at 10 µM [6] [%] | inhibition at 10 µM [7] [%] | inhibition at 3 µM [8] [%] | inhibition at 10 µM [9] [%] | inhibition at 3 µM [10] [%] | inhibition at 10 µM [11] [%] | inhibition at 10 µM [12] [%] | Ki [13] [nM] | SMILES | other results
1 | 18.6 | 13.7 | 6.75 | 10.3 | 34.2 | 19.6 | 4.7 | -14.3 | 46 | -7.74 | 8.34 | 10.2 |  | CCN1CCN(Cc2ccc3c(ccn3S(=O)(=O)c3ccc(F)cc3)c2)CC1 | 
2 |  |  |  |  |  |  |  |  |  |  |  |  | 11 | CCN1CCN(Cc2ccc3c(ccn3S(=O)(=O)c3ccc(C)cc3)c2)CC1 | 
3 | 30.5 | 14.5 | 23.9 | 10.4 | 68.1 | 46.3 | 51.1 | 7.12 | 35.7 | -1.26 | 18.2 | 21.9 |  | CCN1CCN(Cc2ccc3c(ccn3S(=O)(=O)c3ccc(C(C)C)cc3)c2)CC1 | 
4 |  |  |  |  |  |  |  |  |  |  |  |  | 28.2 | CCN1CCN(Cc2ccc3c(ccn3S(=O)(=O)c3ccc(Cl)cc3)c2)CC1 | 

More lines, now with the values behind:

Row | SMILES | inhibition at 3 µM [1] [%] | inhibition at 3 µM [2] [%] | inhibition at 3 µM [3] [%] | inhibition at 3 µM [4] [%] | inhibition at 10 µM [5] [%] | inhibition at 10 µM [6] [%] | inhibition at 10 µM [7] [%] | inhibition at 3 µM [8] [%] | inhibition at 10 µM [9] [%] | inhibition at 3 µM [10] [%] | inhibition at 10 µM [11] [%] | inhibition at 10 µM [12] [%] | Ki [13] [nM] | other results
5 | CN1CCN(Cc2ccc3c(ccn3S(=O)(=O)c3ccccc3)c2)CC1 | 8.24 | 14.4 | 9.91 | 12 | 5.47 | 18.2 | 31.2 | -8.69 | 31.2 | -2.24 | 17.3 | 4.81 |  | 
6 | O=S(=O)(c1ccc(F)cc1F)n1cc(Cl)c2cc(CN3CCNCC3)ccc21 | 26.4 | 14.5 | 31.9 | 1.46 | 45 | 27.8 | 72.9 | -12.6 | 17.7 | -3.62 | 14.6 | 6.37 | 5.57 | 
7 | CCN1CCN(Cc2ccc3c(ccn3Cc3ccccc3)c2)CC1 |  |  |  |  |  |  |  |  |  |  |  |  | > 1000 | 
8 | CN1CCN(Cc2ccc3c(c2)c(Cl)cn3S(=O)(=O)c2ccc(Cl)cc2)CC1 |  |  |  |  |  |  |  |  |  |  |  |  | 9.33 | 
9 | CN1CCN(Cc2ccc3c(ccn3S(=O)(=O)c3cccc(C(F)(F)F)c3)c2)CC1 |  |  |  |  |  |  |  |  |  |  |  |  | 3.15 | 
10 | CCN1CCN(Cc2ccc3c(ccn3S(=O)(=O)c3cccc(C(F)(F)F)c3)c2)CC1 |  |  |  |  |  |  |  |  |  |  |  |  | 5.72 | 
11 | CN1CCN(Cc2ccc3c(c2)c(Cl)cn3S(=O)(=O)c2ccc(F)cc2)CC1 | 2.6 | 3.4 | 10.1 | 6.42 | 39 | 9.13 | 21.5 | 6.42 | 15.2 | 14.1 | 26.9 | 19.8 |  | IC50 [14]: > 10000 nM; IC50 [15]: > 10000 nM; IC50 [16]: > 10000 nM
12 | CN1CCN(Cc2ccc3c(ccn3C(=O)c3ccccc3)c2)CC1 |  |  |  |  |  |  |  |  |  |  |  |  | > 1000 | 
13 | CCN1CCN(Cc2ccc3c(ccn3S(=O)(=O)c3ccccc3Br)c2)CC1 | -3.67 | 3.64 | 22.8 | 48.3 | 32.9 | 15.9 | 43.6 | 7.47 | 76.2 | -0.39 | 17.9 | 10.8 |  | Kp [17]: 19.3; AUC(0-t) [18]: 59 ng·h/mL; Vz [19]: 1035.145 L/kg; half-life [20]: 2.1 h; IC50 [14]: > 10000 nM; clearance [21]: 120 mL/min/kg; Cmax [22]: 13 ng/mL; IC50 [15]: > 10000 nM; bioavailability [23]: 4.2%; Vd [24]: 21.8 L/kg; Activity [25]: Active; CL/F [26]: 2140 mL/min/kg; Cmax [27]: 716 ng/mL; AUC(0-t) [28]: 1380 ng·h/mL; Activity [29]: Active; half-life [30]: 6.04 h; IC50 [16]: 1420 nM
